Test results reported in ChEMBL document CHEMBL1201862, “PubChem BioAssay data set” (2004).
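These data come from cells grown in 96-well plates and exposed to compound for 48 hours at five concentrations. At the GI50, growth is halved.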 Activity calls are given as the source filed them. No stated cut-off is given here; in the data, active = GI50 up to about 1.1 µM and inactive = higher.

How the values were obtained:
Assay in all cases: NCI anticancer screen, dose series, 48 h
786-0 = system: 786-0
MDA-MB-231 = system: MDA-MB-231
UACC-62 = system: UACC-62
SNB-75 = system: SNB-75
K562 = system: K562
MDA-MB-435 = system: MDA-MB-435
SNB-19 = system: SNB-19
A549 = system: A549
SF-295 = system: SF-295
OVCAR-5 = system: OVCAR-5
BT-549 = system: BT-549
CAKI-1 = system: CAKI-1
Malme-3M = system: Malme-3M
EKVX = system: EKVX
COLO 205 = system: COLO 205
SW-620 = system: SW-620
OVCAR-4 = system: OVCAR-4
PC-3 = system: PC-3
UO-31 = system: UO-31
Hs-578T = system: Hs-578T

Measured: GI50

COC(=O)[C@@H](NC(=O)c1ccc(CNC(=O)/C(C)=C/c2ccccc2)cc1)C(C)C
inactive: 786-0 > 100 µM | MDA-MB-231 > 100 µM | UACC-62 70 µM | SNB-75 > 100 µM | K562 > 100 µM | MDA-MB-435 70 µM | SNB-19 > 100 µM | A549 > 100 µM | SF-295 > 100 µM | OVCAR-5 > 100 µM | BT-549 > 100 µM | CAKI-1 > 100 µM | Malme-3M > 100 µM | EKVX 35.4 µM | COLO 205 67.9 µM | SW-620 > 100 µM | OVCAR-4 56.8 µM | PC-3 > 100 µM | UO-31 > 100 µM

ClC1=NSSC1(Cl)Cl
inactive: 786-0 23.6 µM | MDA-MB-231 30.8 µM | UACC-62 45.7 µM | SNB-75 41.7 µM | K562 5.9 µM | MDA-MB-435 41.8 µM | SNB-19 90.4 µM | A549 > 100 µM | SF-295 61.5 µM | OVCAR-5 29.9 µM | BT-549 41.6 µM | CAKI-1 18.5 µM | Malme-3M 28.6 µM | EKVX 58.3 µM | COLO 205 14.7 µM | SW-620 20.7 µM | OVCAR-4 44.2 µM | PC-3 61.7 µM | UO-31 26.7 µM

O=Cc1cn(CCCCCCCCCCCCn2cc(C=O)c3ccccc32)c2ccccc12
inactive: 786-0 > 100 µM | MDA-MB-231 > 100 µM | Hs-578T 4.04 µM | UACC-62 > 100 µM | MDA-MB-435 5.22 µM | SNB-19 > 100 µM | A549 56 µM | SF-295 3.56 µM | OVCAR-5 99.1 µM | BT-549 > 100 µM | CAKI-1 > 100 µM | Malme-3M > 100 µM | EKVX 7.53 µM | COLO 205 > 100 µM | SW-620 > 100 µM | PC-3 33.3 µM | UO-31 > 100 µM
active: K562 0.615 µM

O=c1[nH]nc(NCCc2ccccc2)c2nnn(Cc3ccccc3)c12
inactive: 786-0 > 100 µM | MDA-MB-231 > 100 µM | SNB-75 > 100 µM | K562 > 100 µM | MDA-MB-435 > 100 µM | SNB-19 > 100 µM | A549 > 100 µM | SF-295 > 100 µM | OVCAR-5 > 100 µM | BT-549 > 100 µM | CAKI-1 > 100 µM | Malme-3M > 100 µM | EKVX > 100 µM | COLO 205 > 100 µM | OVCAR-4 > 100 µM | PC-3 > 100 µM | UO-31 > 100 µM

Clc1ccc(-c2cc(-c3cc4cc(Br)ccc4nc3Cl)on2)cc1
inactive: 786-0 18.9 µM | Hs-578T 22.8 µM | UACC-62 14.5 µM | SNB-75 25.1 µM | K562 15.1 µM | MDA-MB-435 11 µM | SNB-19 26.7 µM | A549 13.2 µM | SF-295 11.3 µM | OVCAR-5 1.4 µM | BT-549 20.2 µM | CAKI-1 10.9 µM | Malme-3M 18.8 µM | EKVX 4.93 µM | COLO 205 8.28 µM | SW-620 10.4 µM | OVCAR-4 16.2 µM | PC-3 16.5 µM | UO-31 17.3 µM

CCCCSc1nsc(N(C(=O)c2ccccc2)C(=O)c2ccccc2)n1
inactive: 786-0 32 µM | Hs-578T 31.2 µM | UACC-62 23.4 µM | SNB-75 25.1 µM | K562 29.7 µM | MDA-MB-435 33.7 µM | SNB-19 45.5 µM | A549 36.5 µM | SF-295 32.7 µM | OVCAR-5 26.5 µM | BT-549 29.1 µM | CAKI-1 36.5 µM | Malme-3M 26.9 µM | EKVX 27.5 µM | COLO 205 20.4 µM | SW-620 41.4 µM | OVCAR-4 57.5 µM | PC-3 33.5 µM | UO-31 19.5 µM

Cc1ccc(C2(N3CCCC3)OC(C)(C)c3cccc4cccc2c34)cc1 (centres undefined)
inactive: 786-0 18.7 µM | Hs-578T 15.6 µM | UACC-62 13.7 µM | SNB-75 13.5 µM | K562 22.3 µM | MDA-MB-435 14.8 µM | SNB-19 16.3 µM | A549 11 µM | SF-295 14.5 µM | OVCAR-5 15.8 µM | BT-549 15.7 µM | CAKI-1 15.7 µM | Malme-3M 18.1 µM | EKVX 11.4 µM | COLO 205 15.6 µM | SW-620 16 µM | OVCAR-4 14.5 µM | PC-3 15.4 µM | UO-31 15.1 µM

O=C(Sc1c(-c2ccccc2)c(=O)n(-c2ccccc2)c(=S)n1-c1ccccc1)c1cccs1
inactive: 786-0 49.8 µM | Hs-578T > 100 µM | UACC-62 > 10 µM | SNB-75 29.6 µM | K562 25.1 µM | MDA-MB-435 56.4 µM | SNB-19 > 100 µM | A549 > 100 µM | SF-295 61 µM | OVCAR-5 > 100 µM | BT-549 > 100 µM | CAKI-1 > 100 µM | Malme-3M 86.3 µM | EKVX > 100 µM | COLO 205 > 100 µM | SW-620 24.6 µM | OVCAR-4 > 100 µM | PC-3 73.8 µM | UO-31 > 100 µM

C1=N\c2ccc(cc2)/N=C\c2ccccc2OCc2cccc(n2)COc2ccccc2/1
inactive: 786-0 45.5 µM | MDA-MB-231 78.3 µM | UACC-62 > 100 µM | K562 > 100 µM | MDA-MB-435 > 100 µM | SNB-19 21.1 µM | A549 > 100 µM | SF-295 76.9 µM | OVCAR-5 > 100 µM | BT-549 > 100 µM | CAKI-1 > 100 µM | Malme-3M > 100 µM | EKVX > 100 µM | COLO 205 > 100 µM | SW-620 > 100 µM | OVCAR-4 > 100 µM | PC-3 > 100 µM | UO-31 > 100 µM

C/C(=N\Nc1nc2ccccc2n1C)c1cc2ccccc2cn1
active: 786-0 < 0.0173 µM | MDA-MB-231 < 0.01 µM | Hs-578T 0.0933 µM | UACC-62 0.0403 µM | K562 < 0.0135 µM | MDA-MB-435 0.295 µM | SNB-19 0.352 µM | A549 0.0327 µM | SF-295 0.144 µM | CAKI-1 < 0.01 µM | Malme-3M < 0.01 µM | EKVX < 0.0111 µM | COLO 205 < 0.01 µM | SW-620 < 0.0118 µM | OVCAR-4 0.0423 µM | UO-31 < 0.01 µM
inactive: SNB-75 1.14 µM | BT-549 2.8 µM

Cc1cc(C2(O)C=C(C(C)(C)C)C(=O)C(C(C)(C)C)=C2)c(C)cc1C1(O)C=C(C(C)(C)C)C(=O)C(C(C)(C)C)=C1
inactive: 786-0 > 100 µM | MDA-MB-231 > 100 µM | UACC-62 > 100 µM | SNB-75 > 100 µM | K562 > 100 µM | SNB-19 > 100 µM | A549 > 100 µM | SF-295 > 100 µM | OVCAR-5 > 100 µM | BT-549 > 100 µM | CAKI-1 > 100 µM | Malme-3M > 100 µM | EKVX > 100 µM | COLO 205 > 100 µM | SW-620 > 100 µM | OVCAR-4 > 100 µM | PC-3 > 100 µM | UO-31 > 100 µM

CC(=O)O[C@H]1/C(=C/c2ccc(N(C)C)cc2)C[C@H]2[C@@H]3CC=C4C[C@@H](N5CCCC5)CC[C@]4(C)[C@H]3CC[C@]12C
inactive: 786-0 > 100 µM | MDA-MB-231 > 100 µM | Hs-578T > 100 µM | UACC-62 > 100 µM | SNB-75 > 100 µM | K562 > 100 µM | SNB-19 > 100 µM | A549 > 100 µM | SF-295 > 100 µM | OVCAR-5 > 100 µM | BT-549 > 100 µM | Malme-3M > 100 µM | EKVX > 100 µM | COLO 205 > 100 µM | SW-620 > 100 µM | PC-3 > 100 µM | UO-31 > 100 µM

O=C(O)COCC(=O)N(CCOCCN(Cc1ccccc1)C(=O)COCC(=O)O)Cc1ccccc1
inactive: 786-0 > 100 µM | MDA-MB-231 > 100 µM | Hs-578T > 100 µM | UACC-62 > 100 µM | K562 > 100 µM | MDA-MB-435 > 100 µM | SNB-19 > 100 µM | A549 > 100 µM | SF-295 > 100 µM | OVCAR-5 > 100 µM | BT-549 > 100 µM | CAKI-1 > 100 µM | Malme-3M > 100 µM | EKVX > 100 µM | COLO 205 > 100 µM | SW-620 > 100 µM | PC-3 > 100 µM

C[N+](C)(C)CCOP(=O)([O-])OCCNC(=O)c1ccc2ccccc2c1
inactive: 786-0 > 100 µM | MDA-MB-231 > 100 µM | UACC-62 > 100 µM | SNB-75 > 100 µM | K562 > 100 µM | MDA-MB-435 > 100 µM | SNB-19 > 100 µM | A549 > 100 µM | SF-295 > 100 µM | OVCAR-5 > 100 µM | BT-549 2.05 µM | CAKI-1 > 100 µM | Malme-3M > 100 µM | EKVX > 100 µM | COLO 205 > 100 µM | SW-620 > 100 µM | PC-3 > 100 µM | UO-31 > 100 µM

O=C1Cc2c([nH]c3ccc([N+](=O)[O-])cc23)-c2ccccc2N1 [ALSTERPAULLONE]
active: 786-0 0.406 µM | UACC-62 0.94 µM | SNB-75 0.804 µM | K562 0.774 µM | MDA-MB-435 0.499 µM | SNB-19 0.478 µM | A549 0.211 µM | SF-295 0.92 µM | OVCAR-5 0.22 µM | BT-549 1.08 µM | CAKI-1 0.332 µM | EKVX 0.652 µM | COLO 205 0.235 µM | SW-620 0.348 µM | OVCAR-4 0.498 µM | PC-3 0.836 µM | UO-31 0.109 µM
inactive: MDA-MB-231 1.16 µM | Malme-3M 9.08 µM
